Reference: article PMC9367672, “In vitro differences in toddalolactone metabolism in various species and its effect on cytochrome P450 expression” (Pharmaceutical Biology, 2022)

Columns and labels:
RLMs = experiment: Enzyme kinetics of toddalolactone metabolism in rat liver microsomes (oxidative metabolism and glucuronidation); type: in vitro ADME; conditions: RLMs; for V max: toddalolactone 1–200 μM
Description: (§1) The CYP reaction system (200 μL) consisted of 0.1 M potassium phosphate buffer (pH 7.4), an NADPH-generating system (1 mM NADPH, 10 mM G-6-P, 1 unit/mL G-6-PD, 4 mM MgCl2), and liver microsomes or recombinant human microsomes (supersomes). Each of the in vitro enzymatic assays using liver microsomes was linear with respect to incubation time and amount of protein. After a pre-incubation at 37 °C for 3 min, the reactions were initiated by adding NADP^+. After incubating for 60 min, the reactions were quenched by adding 200 μL of ice-cold acetonitrile. Samples were centrifuged at 18,000 g for 15 min at 4 °C and 10 μL of supernatant was analyzed using an HPLC system. NADPH or CYP enzyme sources were not used in the control group to ensure that the metabolic reactions were CYP- and NADPH-dependent. All incubation assays were completed in triplicate. The data are presented as mean ± standard deviation (SD).
(§2) In the UGT reaction system, liver microsomes were incubated in 200 μL of the reaction system containing 4 mM UDPGA, 5 mM MgCl2, 20 µg/mL alamethicin, and 50 mM Tris-HCl buffer (pH 7.4). After pre-incubation at 37 °C for 3 min, UDPGA was added to the mixture to initiate the reactions. The mixtures were incubated at 37 °C for 60 min, followed by the addition of 200 μL of cold methanol to terminate the reactions. After centrifugation at 18,000 g for 15 min, 10 μL of the supernatant was analyzed by HPLC.
(§3) The enzyme kinetics of toddalolactone in oxidative metabolism and glucuronidation were determined by incubating liver microsomes (0.2 mg/mL) or CYPs (15 nM) with different concentrations of toddalolactone (1–200 μM). The kinetic parameters including Km and Vmax were obtained by fitting the experimental data to the Michaelis–Menten equation (Equation (1)), biphasic kinetics equation (Equation (2)), or substrate inhibition equation (Equation (3)) (He et al. [2018]), and the results were graphically represented on Eadie–Hofstee plots. The in vitro intrinsic clearance (CLint) was calculated based on the Vmax/Km ratio. Metabolites were quantified using the standard curve for toddalolactone because of the absence of metabolite standards. All incubations were repeated in three independent experiments. Kinetic constants were expressed with mean ± SD: (1) V=Vmax×[S]/Km+[S] (2) V=Vmax1×[S]/Ks1+[S]+Vmax2×[S]/Ks2+[S] (3) V=Vmax×[S]/Ks+[S]+[S]^2/Ksi where v is the rate of reaction, Vmax is the estimated maximum velocity, [S] is the substrate concentration, and Km is the affinity constant of the substrate; Vmax1 and Vmax2 represent the estimated maximum velocity of the two metabolic phases; Ks1 and Ks2 represent the affinity constants for two metabolic phases; Ks and Ksi are the substrate affinity and inhibition constants, respectively.
(§4) The enzyme kinetics in oxidative metabolism and glucuronidation of toddalolactone were studied, and preliminary experiments were performed to ensure that metabolites were formed in the linear range of both reaction time and microsomal protein concentration. The metabolite with the largest peak area was used to calculate the kinetic parameter values (Km, Vmax and CLint). Based on the results of toddalolactone metabolism in different species, the kinetic parameter values in RLMs, DLMs, MLMs, HLMs, RAMs, MIMs, PLMs, CYP1A1 and CYP3A5 were calculated using P4, P4, P4, P4, P2, P2, P4, P4 and P4 data in oxidative metabolism, respectively. In the glucuronidation reaction, the kinetic parameter values in RLMs, MLMs, HLMs, RAMs and PLMs were calculated using P5, P6, P6, P6 and P5 data, respectively.

[1] = as above; type: in vitro ADME; conditions: rat, liver microsomes, pH 7.4, RLMs, Vmax/Km
Description: as §1, §2, §3, §4

CYP3A5 = CYP3A5 (Homo sapiens, UniProt P20815); experiment: Reaction phenotyping with recombinant human CYP3A5; type: in vitro ADME; parameters: purchased Corning Life Sciences (Corning, MA); host or cells: Saccharomyces cerevisiae; conditions: CYP3A5 15 nM, 37 °C, 60 min; P4 main metabolite
Sequence of CYP3A5 (P20815 whole entry): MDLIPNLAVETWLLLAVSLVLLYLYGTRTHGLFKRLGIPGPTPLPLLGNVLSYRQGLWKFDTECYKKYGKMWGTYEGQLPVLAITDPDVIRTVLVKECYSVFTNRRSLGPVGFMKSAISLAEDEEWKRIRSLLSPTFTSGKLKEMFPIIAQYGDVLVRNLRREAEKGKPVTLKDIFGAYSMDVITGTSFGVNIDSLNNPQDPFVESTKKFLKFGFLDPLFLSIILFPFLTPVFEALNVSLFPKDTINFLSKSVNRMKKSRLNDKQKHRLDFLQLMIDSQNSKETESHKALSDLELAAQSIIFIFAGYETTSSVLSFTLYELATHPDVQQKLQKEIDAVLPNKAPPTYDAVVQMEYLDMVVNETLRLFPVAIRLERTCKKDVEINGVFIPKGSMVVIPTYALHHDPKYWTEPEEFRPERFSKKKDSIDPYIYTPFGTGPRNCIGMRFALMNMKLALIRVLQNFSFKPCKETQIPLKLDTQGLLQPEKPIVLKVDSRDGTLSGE
Description: as §1
Thirteen cDNA-expressed human CYP isoforms (CYP1A1, CYP1A2, CYP2A6, CYP2B6, CYP2C8, CYP3A4, CYP2C19, CYP3A5, CYP1B1, CYP2C9, CYP2D6, CYP2E1 and CYP4F2) were used to identify the isoform(s) involved in the biotransformation of toddalolactone. Toddalolactone (10 μM) was incubated with each recombinant CYP (15 nM) for 60 min at 37 °C and metabolites were identified by HPLC.

DLMs = experiment: Prediction of in vivo hepatic clearance in dogs from DLM kinetics; type: in vitro ADME, dog
Description: The in vivo hepatic clearances in oxidative metabolism and glucuronidation of toddalolactone were calculated using Equations (4)–(6) (Li et al. [2008]): (4) CLint in vitro=∑i=1nVmax(Mi)/Km(Mi) (5) CLint in vivo=CLint in vitro⋅SF (6) CLH=QH⋅fu⋅CLint in vivo/QH+fu⋅CLint in vivo where SF is the milligrams of microsomal protein per gram of liver multiplied by the grams of liver weight; CLH is hepatic clearance; fu is the unbound fraction in the blood (the value of fu was set to 1 due to the absence of available data for toddalolactone); QH is the blood flow in the liver; and Mi is the metabolite of toddalolacone. The physiological parameters to calculate intrinsic clearance were as follows. The liver weight of dogs, rats and humans were 32, 40 and 25.7 g/kg body weight, respectively; the content of microsomal protein was 77.9, 44.8 and 48.8 mg/g of liver; and the blood flow in the liver was 30.9, 55.2 and 20.7 mL/(min ⋅ kg), respectively (Naritomi et al. [2001]).

HLMs = experiment: Enzyme kinetics of toddalolactone metabolism in human liver microsomes (oxidative metabolism and glucuronidation); type: in vitro ADME; conditions: HLMs; for V max: toddalolactone 1–200 μM
Description: as §1, §2, §3, §4

[2] = as above; type: in vitro ADME; conditions: human, liver microsomes, pH 7.4, HLMs, Vmax/Km
Description: as §1, §2, §3, §4

[3] = Enzyme kinetics of toddalolactone metabolism in mini pig liver microsomes (oxidative metabolism and glucuronidation); type: in vitro ADME; conditions: pig, Vmax/Km
Description: as §1, §2, §3, §4

PLMs = experiment: as above; type: in vitro ADME; conditions: for V max: toddalolactone 1–200 μM
Description: as §1, §2, §3, §4

[4] = P450-catalyzed oxidation, P4 formation
[5] = glucuronide metabolism, P5 formation
[6] = glucuronide metabolism, P6 formation

Q: Which K m (RLMs; [4]) does the source give for `COc1cc2oc(=O)ccc2c(OC)c1C[C@@H](O)C(C)(C)O` [toddalolactone] here?
A: 121.13 ± 31.89 µM

Q: What about the V max (RLMs; [4]) of the same compound?
A: 158.26 ± 20.52 pmol/min/mg protein

Q: What about the K m (RLMs; [5]) of the same compound?
A: 79.11 ± 22.56 µM

Q: What about the V max (RLMs; [5]) of the same compound?
A: 55.89 ± 6.61 pmol/min/mg protein

Q: And the microsomal CLint [1, 4]?
A: 1.31 µL/min/mg

Q: What about the microsomal CLint [1, 5] of the same compound?
A: 0.69 µL/min/mg

Q: And the “catalysis of toddalolactone metabolism by rhCYP isoform” value (CYP3A5)?
A: predominantly catalyzed

Q: What about the “CLH versus hepatic blood flow (QH)” value (DLMs; DLMs) of the same compound?
A: 5.41%

Q: And the “clearance class according to predicted CLH” value (DLMs; dogs)?
A: low-clearance (low-clearance drugs (<30% liver blood flow))

Q: And the “in vivo hepatic clearance (CLH)” value (DLMs; dogs, predicted from kinetic parameters of P1–P6, fu set to 1)?
A: 0.47 mL/(min/kg body weight)

Q: What about the K m (HLMs; [4]) of the same compound?
A: 244.63 ± 78.99 µM

Q: What about the V max (HLMs; [4]) of the same compound?
A: 35.07 ± 7.16 pmol/min/mg protein

Q: What about the K m (HLMs; [6]) of the same compound?
A: 66.33 ± 20.46 µM

Q: And the V max (HLMs; [6])?
A: 50.16 ± 8.75 pmol/min/mg protein

Q: What about the microsomal CLint [2, 4] of the same compound?
A: 0.14 µL/min/mg

Q: And the microsomal CLint [2, 6]?
A: 0.75 µL/min/mg

Q: And the microsomal CLint ([3]; liver microsomes, pH 7.4, PLMs, P450-catalyzed oxidation, P4 formation)?
A: 0.69 µL/min/mg

Q: And the microsomal CLint ([3]; mini pig liver microsomes (PLMs), UGT reaction system, pH 7.4, glucuronide metabolism, P5 formation)?
A: 0.36 µL/min/mg

Q: What about the K m (PLMs; [4]) of the same compound?
A: 135.36 ± 32.39 µM

Q: And the V max (PLMs; [4])?
A: 94.24 ± 11.61 pmol/min/mg protein

Q: What about the K m (PLMs; [5]) of the same compound?
A: 93.28 ± 22.35 µM

Q: And the V max (PLMs; [5])?
A: 34.12 ± 3.62 pmol/min/mg protein
